Assay results: patent US20250388605A1, “HETEROBIFUNCTIONAL COMPOUNDS AND METHODS OF TREATING DISEASE” (Halda Therapeutics OpCo, Inc., priority 2022, published 2025)

Columns and labels:
[1] = test system: VCaP cells; assay: Cellular growth inhibition assay for VCaP cells, CellTiter-Glo; type: cell-based, human; conditions: 72 hours
Summary of the method: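 GI50 values come from four-parameter curve fits of luminescence data normalized to a zero baseline. Compound, in medium with 0.5% DMSO, was added one day after plating and left for 72 h before CellTiter-Glo 2.0 addition.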

[2] = test system: T-Rex 293 cell line SC3 cells having increased expression of androgen receptor protein due to exposure to doxycycline; assay: Cellular growth inhibition, T-Rex 293 SC3 cells with doxycycline (increased androgen receptor expression), CellTiter-Glo; type: cell-based; conditions: T-Rex 293 SC3 cells with 10 ng/mL doxycycline (increased androgen receptor expression), 72 hours, CellTiter-Glo 2.0
Summary of the method: (§1)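 Doxycycline (10 ng/mL) was either included or omitted to toggle wild-type androgen receptor expression in SC3 cells, a T-Rex 293 clone, grown in stripped-serum, phenol red-free medium. After 72 hours with compound, viable cells were quantified by CellTiter-Glo 2.0.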

[3] = test system: T-Rex 293 cell line SC3 cells lacking increased expression of androgen receptor protein; assay: Cellular growth inhibition, T-Rex 293 SC3 cells without doxycycline (no increased androgen receptor expression), CellTiter-Glo; type: cell-based; conditions: T-Rex 293 SC3 cells not exposed to doxycycline (no increased androgen receptor expression), 72 hours
Summary of the method: as §1

[4] = test system: T47D cells; assay: Cellular Growth Inhibition Assay for T47D Cells (CellTiter-Glo); type: cell-based, human; conditions: 72 hours
Method: Exemplary compounds were tested for ability to inhibit the proliferation of T47D cells. T47D cells are a commercially available human breast cancer cell line.
T47D cells were purchased from American Type Cell Culture (ATCC Cat #HTB-133) and then seeded on poly-D-lysine coated, black clear-bottom 384-well plates at 3000/well in 25 μL Dulbecco's Modified Eagle Medium (DMEM) supplemented with 10% w/w Fetal bovine serum (FBS), 0.2 units/mL recombinant human insulin (Gibco Cat #12585014), and 1% w/w Pen-Strep. Pen-Strep is a commercially available mixture of penicillin G and streptomycin, which is used in mammalian cell culture media to prevent bacterial contamination. Dulbecco's Modified Eagle Medium (DMEM) supplemented with 10% w/w fetal bovine serum (FBS), 0.2 units/mL recombinant human insulin, and 1% w/w Pen-Strep is herein referred to as Treatment Medium. Following seeding of cells in the plates, the plates were spun at 300×g for 30 seconds, then equilibrated to room temperature for 30 minutes, and then deposited in a humidified tissue culture incubator maintained at 37° C. with 5% CO2.
At 24 hours after seeding of the cells, dilutions of test compound were prepared in DMSO and dissolved in Treatment Medium, to achieve a final DMSO concentration of 0.5% w/w, thereby providing the Test Compound Solution. A 25 μL aliquot of the Test Compound Solution was added to cells in the well plates. An equal volume of a solution containing DMSO and Treatment Medium was used as a negative control. Following treatment of cells with Test Compound Solution or said equal volume of a solution containing DMSO and Treatment Medium, the plates were spun at 300×g for 30 seconds, and then left in an incubator for 72 hours.
At the end of the treatment duration, cell viability was quantified with CellTiter-Glo 2.0 reagent (Promega Cat #G9243). For this purpose, plates were equilibrated to room temperature for 30 minutes, and then 25 μL of CellTiter-Glo 2.0 reagent was added to cells in the plate wells. Plates were then agitated on a shaker for two minutes at 500 rpm and subsequently incubated at room temperature for 10 minutes. Following incubation, the plates were spun at 3000×g for 30 seconds, then sealed with an optical adhesive cover, and luminescence readings were measured with an EnVision Plate Reader (Perkin Elmer).
Data was normalized using zero luminescence for baseline. A four-parameter non-linear regression curve fit was applied to dose-response data in GraphPad Prism data analysis software to determine the half-maximal growth inhibitory concentration (GI50) for each test compound.

| GI50 [1] [nM] | GI50 [4] [nM] | GI50 ([4]; Homo sapiens) [nM] | Structure (SMILES) | further results |
| --- | --- | --- | --- | --- |
| < 500 | < 500 |  | Cn1cc(-c2cc(C(C)(C)O)ccc2Oc2ccc(CC3CC(C4CCCN(c5ncc(C(=O)N[C@H]6C(C)(C)[C@H](Oc7ccc(C#N)c(Cl)c7)C6(C)C)cn5)C4)C3)cc2)c2cc[nH]c2c1=O (single isomer, unassigned) [Compound I-347] | GI50 [2]: > 3000 nM; GI50 [3]: > 3000 nM |
| < 500 | < 500 |  | Cn1cc(-c2cc(C(C)(C)O)ccc2Oc2ccc(CC3CC(C4CCCN(c5ncc(C(=O)N[C@H]6C(C)(C)[C@H](Oc7ccc(C#N)c(Cl)c7)C6(C)C)cn5)C4)C3)cc2)c2cc[nH]c2c1=O (single isomer, unassigned) [Compound I-348] | GI50 [2]: < 500 nM; GI50 [3]: > 3000 nM |
| < 500 | < 500 |  | Cn1cc(-c2cc(C(C)(C)O)ccc2Oc2ccc(CC3CC(C4CCCN(c5ncc(C(=O)N[C@H]6C(C)(C)[C@H](Oc7ccc(C#N)c(Cl)c7)C6(C)C)cn5)C4)C3)cc2)c2cc[nH]c2c1=O (single isomer, unassigned) [Compound I-349] | GI50 [2]: > 3000 nM; GI50 [3]: > 3000 nM |
|  |  | < 500 | CCS(=O)(=O)Nc1ccc(Oc2cccc(CC3CCN(c4ncc(C(=O)N[C@H]5C(C)(C)[C@H](Oc6ccc(C#N)c(Cl)c6)C5(C)C)cn4)CC3)c2)c(-c2cn(C)c(=O)c3[nH]ccc23)c1 [Compound I-23] | GI50 ([1]; Homo sapiens): < 500 nM; GI50 [2]: < 500 nM; GI50 [3]: < 500 nM |
| < 500 | < 500 |  | Cn1cc(-c2cc(C(C)(C)O)ccc2Oc2ccc(F)c(CCCN3CC4(C3)CN(c3ncc(C(=O)N[C@H]5C(C)(C)[C@H](Oc6ccc(C#N)c(Cl)c6)C5(C)C)cn3)C4)c2F)c2cc[nH]c2c1=O [Compound I-247] |  |
| 500 to 1500 | < 500 |  | CCS(=O)(=O)c1ccc(Oc2cccc(CCCC3CCN(c4ncc(C(=O)N[C@H]5C(C)(C)[C@H](Oc6ccc(C#N)c(Cl)c6)C5(C)C)cn4)CC3)c2)c(-c2cn(C)c(=O)c3[nH]ccc23)c1 [Compound I-248] |  |
| < 500 | 500 to 1500 |  | Cn1cc(-c2cc(C(C)(C)O)ccc2OC(CCCCN2CCN(c3ncc(C(=O)N[C@H]4C(C)(C)[C@H](Oc5ccc(C#N)c(Cl)c5)C4(C)C)cn3)CC2)C2CC2)c2cc[nH]c2c1=O (some centres unmarked) [Compound I-252] |  |
|  |  | 500 to 1500 | Cn1cc(-c2cc(C(C)(C)O)ccc2OC2CC3CC2CC3OC2CCN(c3ncc(C(=O)N[C@H]4C(C)(C)[C@H](Oc5ccc(C#N)c(Cl)c5)C4(C)C)cn3)CC2)c2cc[nH]c2c1=O (some centres unmarked) [Compound I-253, N-[3-(3-chloro-4-cyano-phenoxy)-2,2,4,4-tetramethyl-cyclobutyl]-2-[4-[5-[4-(1-hydroxy-1-methyl-ethyl)-2-(6-methyl-7-oxo-1H-pyrrolo[2,3-c]pyridin-4-yl)phenoxy]norbornan-2-yl]oxy-1-piperidyl]pyrimidine-5-carboxamide] | GI50 ([1]; Homo sapiens): < 500 nM |
|  |  | > 3000 | Cn1cc(-c2cc(C(C)(C)O)ccc2OC(C)(C)CN2CC(OC3CCN(c4ncc(C(=O)N[C@H]5C(C)(C)[C@H](Oc6ccc(C#N)c(Cl)c6)C5(C)C)cn4)CC3)C2)c2cc[nH]c2c1=O [Compound I-254, N-[3-(3-chloro-4-cyano-phenoxy)-2,2,4,4-tetramethyl-cyclobutyl]-2-[4-[1-[2-[4-(1-hydroxy-1-methyl-ethyl)-2-(6-methyl-7-oxo-1H-pyrrolo[2,3-c]pyridin-4-yl)phenoxy]-2-methyl-propyl]azetidin-3-yl]oxy-1-piperidyl]pyrimidine-5-carboxamide] | GI50 ([1]; Homo sapiens): < 500 nM |
| < 500 | < 500 |  | Cn1cc(-c2cc(C(C)(C)O)ccc2Oc2ccc(C3(NCC4CCN(c5ncc(C(=O)N[C@H]6C(C)(C)[C@H](Oc7ccc(C#N)c(Cl)c7)C6(C)C)cn5)CC4)COC3)cc2)c2cc[nH]c2c1=O [Compound I-256] |  |
|  | < 500 |  | COc1cc(O[C@H]2C(C)(C)[C@H](NC(=O)c3cnc(N4CCC(C5CN(c6ccc(Oc7ccc(C(C)(C)O)cc7-c7cn(C)c(=O)c8[nH]ccc78)cc6)C5)CC4)nc3)C2(C)C)ccc1C#N [Compound I-385] |  |
|  | < 500 |  | Cn1cc(-c2ccccc2Oc2ccc(N3CC(C4CCN(c5ccc(C(=O)N[C@H]6C(C)(C)[C@H](Oc7ccc(C#N)c(Cl)c7)C6(C)C)nc5)CC4)C3)cc2)c2cc[nH]c2c1=O [Compound I-386] |  |
|  |  | > 3000 | Cn1cc(-c2cc(C(C)(C)O)ccc2Oc2ccccc2N2CC(CC3CCN(c4ncc(C(=O)NC5C(C)(C)C(Oc6ccc(C#N)c(Cl)c6)C5(C)C)cn4)CC3)C2)c2cc[nH]c2c1=O (centres unmarked) [Compound I-387, N-[3-(3-chloro-4-cyano-phenoxy)-2,2,4,4-tetramethyl-cyclobutyl]-2-[4-[[1-[2-[4-(1-hydroxy-1-methyl-ethyl)-2-(6-methyl-7-oxo-1H-pyrrolo[2,3-c]pyridin-4-yl)phenoxy]phenyl]azetidin-3-yl]methyl]-1-piperidyl]pyrimidine-5-carboxamide] |  |
|  | < 500 |  | Cn1cc(-c2cc(C(C)(C)O)ccc2Oc2ccc(N3CC(C4CCN(c5ccc(C(=O)N[C@H]6C(C)(C)[C@H](Oc7ccc(C#N)c(Cl)c7)C6(C)C)nc5)CC4)C3)cc2)c2cc[nH]c2c1=O [Compound I-388] |  |
|  | < 500 |  | Cn1cc(-c2cc(C(C)(C)O)ccc2Oc2ccc(N3CC(C4CCN(c5ncc(C(=O)N[C@H]6C(C)(C)[C@H](Oc7ccc(C#N)c(C(F)(F)F)c7)C6(C)C)cn5)CC4)C3)cc2)c2cc[nH]c2c1=O [Compound I-389] |  |
|  | < 500 |  | Cn1cc(-c2cc(C(C)(C)O)ccc2Oc2ccc(N3CC(C4CCN(c5ncc(C(=O)N[C@H]6C(C)(C)[C@H](Oc7ccc(C#N)c(F)c7)C6(C)C)cn5)CC4)C3)cc2)c2cc[nH]c2c1=O [Compound I-390] |  |
|  |  | < 500 | Cc1cc(Oc2ccc(C(C)(C)O)cc2-c2cn(C)c(=O)c3[nH]ccc23)cc(C)c1N1CC(CC2CCN(c3cnc(C(=O)N[C@H]4C(C)(C)[C@H](Oc5ccc(C#N)c(Cl)c5)C4(C)C)cn3)CC2)C1 [Compound I-391, N-[3-(3-chloro-4-cyano-phenoxy)-2,2,4,4-tetramethyl-cyclobutyl]-5-[4-[[1-[4-[4-(1-hydroxy-1-methyl-ethyl)-2-(6-methyl-7-oxo-1H-pyrrolo[2,3-c]pyridin-4-yl)phenoxy]-2,6-dimethyl-phenyl]azetidin-3-yl]methyl]-1-piperidyl]pyrazine-2-carboxamide] |  |
|  |  | < 500 | COc1cc(N2CC(CC3CCN(c4cnc(C(=O)NC5C(C)(C)C(Oc6ccc(C#N)c(Cl)c6)C5(C)C)cn4)CC3)C2)ccc1Oc1ccc(C(C)(C)O)cc1-c1cn(C)c(=O)c2[nH]ccc12 (centres unmarked) [Compound I-392, N-[3-(3-chloro-4-cyano-phenoxy)-2,2,4,4-tetramethyl-cyclobutyl]-5-[4-[[1-[4-[4-(1-hydroxy-1-methyl-ethyl)-2-(6-methyl-7-oxo-1H-pyrrolo[2,3-c]pyridin-4-yl)phenoxy]-3-methoxy-phenyl]azetidin-3-yl]methyl]-1-piperidyl]pyrazine-2-carboxamide] |  |
|  |  | < 500 | Cn1cc(-c2cc(C(C)(C)O)ccc2Oc2ccc(N3CC(CC4CCN(c5cnc(C(=O)N[C@H]6C(C)(C)[C@H](Oc7ccc(C#N)c(Cl)c7)C6(C)C)cn5)CC4)C3)cc2Cl)c2cc[nH]c2c1=O [Compound I-393] |  |
|  | < 500 |  | COc1cc(Oc2ccc(C(C)(C)O)cc2-c2cn(C)c(=O)c3[nH]ccc23)ccc1N1CC(CC2CCN(c3cnc(C(=O)N[C@H]4C(C)(C)[C@H](Oc5ccc(C#N)c(Cl)c5)C4(C)C)cn3)CC2)C1 [Compound I-394] |  |
